Here are results for 8 compounds from patent US20220241249A1, “PHARMACEUTICAL COMPOSITION AND KIT CONTAINING NOVEL PENAM DERIVATIVE OR SALT THEREOF AND ONE OR MORE COMPOUNDS SELECTED FROM beta-LACTAMASE INHIBITORY COMPOUND AND ANTIBACTERIAL COMPOUND OR SALTS THEREOF” (priority 2019, published 2022).

≈ marks a conversion by molar mass, not a printed value. Bounds are passed on as bounds.

What all share (assay): Antibacterial activity evaluation test, MIC by broth microdilution (CLSI)
What all share (type): cell-based
Background: In broth dilution the organism is exposed to a series of concentrations in liquid medium.

In test [1] the test system is AmpC-derepressed Pseudomonas aeruginosa mutant strain (S-3028). As to conditions: Pseudomonas aeruginosa. In a few lines: (§1)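 Colonies grown overnight on Mueller Hinton agar, suspended to 0.5 McFarland and diluted 10-fold as inoculum. Incubation in cation-adjusted Mueller Hinton broth with test compound at 35° C for 16–20 h. MIC (μg/mL) is the lowest concentration with no visible growth.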

Test [2] deals with CTX-M-15-containing Escherichia coli strain (TK-1747). As to conditions: Escherichia coli. In a few lines:
as §1

Test [3] has as its system GES-19 and GES-20-containing Pseudomonas aeruginosa strain (S-3759). Particulars: Pseudomonas aeruginosa. The essentials:
as §1

Test [4] relates to IMP-1-containing Pseudomonas aeruginosa strain (S-2838). Particulars: Pseudomonas aeruginosa. In a few lines: as §1
The subject of test [5] is KPC-2-containing Klebsiella pneumoniae strain (Y-995). As to conditions: Klebsiella pneumoniae. The essentials:
as §1

Test [6] relates to NDM-1-containing Klebsiella pneumoniae strain (Y-1007). As to conditions: Klebsiella pneumoniae. In a few lines: as §1
The test system of test [7] is OXA-48-containing Klebsiella pneumoniae strain (Y-1062). As to conditions: Klebsiella pneumoniae. The essentials: as §1
Test [8] relates to Pseudomonas aeruginosa strain ATCC27853. As to conditions: Pseudomonas aeruginosa, ATCC27853. In a few lines: as §1
The test system of test [9] is VIM-2-containing Pseudomonas aeruginosa strain (S-3779). As to conditions: Pseudomonas aeruginosa. The essentials: as §1

The MIC is the lowest concentration found to suppress growth. A low value points to inhibition by little substance. With `Nc1nc(/C(=N/O[C@@H](CO)C(=O)O)C(=O)NC2C(=O)N3C[C@@](C(=O)O)(N4CCN(NC(=O)C(=O)c5ccc(O)c(O)c5Cl)C4=O)S[C@H]23)cs1` (stereo partly drawn) [Example 113, (3R,5R,6R)-6-((Z)-2-(2-aminothiazol-4-yl)-2-(((S)-1-carboxy-2-hydroxyethoxy)imino)-acetamido)-3-(3-(2-(2-chloro-3,4-dihydroxy-phenyl)-2-oxoaceta-mido)-2-oxoimidazol-idin-1-yl)-7-oxo-4-thia-1-azabicyclo[3.2.0]-heptane-3-carboxylic acid], the MIC is 0.25 µg/mL (≈ 0.336 µM) in [1]; less than 0.06 µg/mL in test [2]; 1 µg/mL (≈ 1.35 µM) in test [3]; 0.5 µg/mL (≈ 0.673 µM) in [4]; 0.12 µg/mL (≈ 0.161 µM) in test [5]; less than 0.06 µg/mL in test [6]. Also, the minimal inhibitory concentration (MIC) in test [7] stood at 0.25 µg/mL (≈ 0.336 µM); in [8], 4 µg/mL (≈ 5.38 µM); in test [9], 0.5 µg/mL (≈ 0.673 µM).
For `CCC[C@H](O/N=C(\C(=O)NC1C(=O)N2C[C@@](C(=O)O)(N3CCN(NC(=O)C(=O)c4ccc(O)c(O)c4Cl)C3=O)S[C@H]12)c1csc(N)n1)C(=O)O` (stereo partly drawn) [Example 115, (3R,5R,6R)-6-((Z)-2-(2-aminothiazol-4-yl)-2-(((S)-1-carboxy-butoxy)imino)aceta-mido)-3-(3-(2-(2-chloro-3,4-dihydroxy-phenyl)-2-oxoaceta-mido)-2-oxoimidazol-idin-1-yl)-7-oxo-4-thia-1-azabicyclo[3.2.0]-heptane-3-carboxylic acid], the minimum inhibitory concentration (MIC) in test [1] is 0.12 µg/mL (≈ 0.159 µM); in [2], 0.25 µg/mL (≈ 0.331 µM); in test [3] it was 0.5 µg/mL (≈ 0.662 µM); in test [4], 1 µg/mL (≈ 1.32 µM); in test [5], 0.25 µg/mL (≈ 0.331 µM); in test [6], less than 0.06 µg/mL. Further, the MIC was 1 µg/mL (≈ 1.32 µM) in test [7], 0.5 µg/mL (≈ 0.662 µM) in test [8] and 0.5 µg/mL (≈ 0.662 µM) in test [9].
On to `CC(C)(O/N=C(\C(=O)N[C@@H]1C(=O)N2C[C@@](C(=O)O)(N3CCN(NC(=O)c4cc(Cl)c(O)c(O)c4Cl)C3=O)S[C@H]12)c1csc(N)n1)C(=O)O` [Example 83, (3R,5R,6R)-6-((Z)-2-(2-aminothiazol-4-yl)-2-(((2-carboxypropan-2-yl)oxy)imino)acetamido)-3-(3-(2,5-dichloro-3,4-dihydroxybenzamido)-2-oxoimidazolidin-1-yl)-7-oxo-4-thia-1-azabicyclo[3.2.0]heptane-3-carboxylic acid], for which the MIC was 0.5 µg/mL (≈ 0.669 µM) in [1]; 0.5 µg/mL (≈ 0.669 µM) in [2]; 1 µg/mL (≈ 1.34 µM) in [3]; 0.5 µg/mL (≈ 0.669 µM) in [4]; 0.25 µg/mL (≈ 0.334 µM) in test [5]; less than 0.06 µg/mL in test [6]. Besides, the figures for the MIC in [7], in test [8] and in test [9] were 2 µg/mL (≈ 2.68 µM), 0.25 µg/mL (≈ 0.334 µM) and 0.5 µg/mL (≈ 0.669 µM), respectively.
On to `CC(C)(O/N=C(\C(=O)N[C@@H]1C(=O)N2C[C@@](C(=O)O)(N3CC(CNC(=O)c4ccc(O)c(O)c4Cl)OC3=O)S[C@H]12)c1csc(N)n1)C(=O)O` (stereo partly drawn) [Example 73, (3R,5R,6R)-6-((Z)-2-(2-aminothiazol-4-yl)-2-(((2-carboxypropan-2-yl)oxy)imino)acetamido)-3-(5-((2-chloro-3,4-dihydroxybenzamido)methyl)-2-oxooxazolidin-3-yl)-7-oxo-4-thia-1-azabicyclo[3.2.0]heptane-3-carboxylic acid], for which the MIC turned out to be 0.25 µg/mL (≈ 0.343 µM) in [1]; 0.25 µg/mL (≈ 0.343 µM) in test [2]; 0.5 µg/mL (≈ 0.687 µM) in test [3]; 0.5 µg/mL (≈ 0.687 µM) in test [4]; 16 µg/mL (≈ 22 µM) in test [5]; 0.12 µg/mL (≈ 0.165 µM) in test [6]. The MIC in test [7] worked out at 1 µg/mL (≈ 1.37 µM); in test [8], 0.5 µg/mL (≈ 0.687 µM); in test [9], 1 µg/mL (≈ 1.37 µM).
For the compound `CC(C)(O/N=C(\C(=O)N[C@@H]1C(=O)N2C[C@@](C(=O)O)(N3CCN(NC(=O)c4ccc(O)c(O)c4Cl)C3=O)S[C@H]12)c1csc(N)n1)C(=O)O` [Example 2, (3R,5R,6R)-6-((Z)-2-(2-aminothiazol-4-yl)-2-(((2-carboxypropan-2-yl)oxy)imino)acetamido)-3-(3-(2-chloro-3,4-dihydroxybenzamido)-2-oxoimidazolidin-1-yl)-7-oxo-4-thia-1-azabicyclo[3.2.0]heptane-3-carboxylic acid], the MIC in [1] was 1 µg/mL (≈ 1.4 µM); in [2], 0.25 µg/mL (≈ 0.351 µM); in test [3], 4 µg/mL (≈ 5.61 µM); in [4], 0.5 µg/mL (≈ 0.701 µM); in test [5] it was 0.12 µg/mL (≈ 0.168 µM); in [6], less than 0.06 µg/mL. For the same compound, the MIC turned out to be 2 µg/mL (≈ 2.8 µM) in test [7], 1 µg/mL (≈ 1.4 µM) in test [8] and 0.25 µg/mL (≈ 0.351 µM) in test [9].
As to `CC(C)(O/N=C(\C(=O)NC1C(=O)N2C[C@@](C(=O)O)(N3CCN(NC(=O)C(=O)NCCNC(=O)C(=O)c4ccc(O)c(O)c4Cl)C3=O)S[C@H]12)c1csc(N)n1)C(=O)O` (stereo partly drawn) [Example 121, (3R,5R,6R)-6-((Z)-2-(2-aminothiazol-4-yl)-2-(((2-carboxypropan-2-yl)oxy)imino)aceta-mido)-3-(3-(2-((2-(2-(2-chloro-3,4-dihydroxy-phenyl)-2-oxoaceta-mido)ethyl)amino)-2-oxoacetamido)-2-oxo-imidazolidin-1-yl)-7-oxo-4-thia-1-azabicyclo-[3.2.0]heptane-3-carbox-ylic acid], the MIC in test [1] was 2 µg/mL (≈ 2.34 µM); in test [2], less than 0.06 µg/mL; in test [3], 2 µg/mL (≈ 2.34 µM); in [4] it was 4 µg/mL (≈ 4.68 µM); in [5], 0.25 µg/mL (≈ 0.292 µM); in test [6], 0.12 µg/mL (≈ 0.14 µM). For the same compound, the MIC in test [7] worked out at 0.5 µg/mL (≈ 0.585 µM); in [8], 2 µg/mL (≈ 2.34 µM); in test [9] it was 1 µg/mL (≈ 1.17 µM).
Take `CC(C)(O/N=C(\C(=O)N[C@@H]1C(=O)N2C[C@@](C(=O)O)(N3CCCN(NC(=O)C(=O)c4ccc(O)c(O)c4Cl)C3=O)S[C@H]12)c1csc(N)n1)C(=O)O` [Example 86, (3R,5R,6R)-6-((Z)-2-(2-aminothiazol-4-yl)-2-(((2-carboxypropan-2-yl)oxy)imino)acetamido)-3-(3(-2-(2-chloro-3,4-dihydroxyphenyl)-2-oxoacetamido)-2-oxotetrahydropyrimidin-1(2H)-yl)-7-oxo-4-thia-1-azabicyclo[3.2.0]heptane-3-carboxylic acid]: the MIC in [1] was 1 µg/mL (≈ 1.32 µM); in test [2], 1 µg/mL (≈ 1.32 µM); in [3], 2 µg/mL (≈ 2.65 µM); in test [4], 1 µg/mL (≈ 1.32 µM); in test [5], 0.5 µg/mL (≈ 0.662 µM); in [6], less than 0.06 µg/mL. Moreover, the minimal inhibitory concentration (MIC) worked out at 1 µg/mL (≈ 1.32 µM) in test [7], 4 µg/mL (≈ 5.3 µM) in test [8] and 2 µg/mL (≈ 2.65 µM) in [9].
Regarding `CC(C)(O/N=C(\C(=O)N[C@@H]1C(=O)N2C[C@@](C(=O)O)(N3CC[C@@H](NC(=O)C(=O)c4ccc(O)c(O)c4Cl)C3=O)S[C@H]12)c1csc(N)n1)C(=O)O` [Example 85, (3R,5R,6R)-6-((Z)-2-(2-aminothiazol-4-yl)-2-(((2-carboxypropan-2-yl)oxy)imino)acetamido)-3-((R)-3-(2-(2-chloro-3,4-dihydroxyphenyl)-2-oxoacetamido)-2-oxopyrrolidin-1-yl)-7-oxo-4-thia-1-azabicyclo[3.2.0]heptane-3-carboxylic acid], the MIC was 0.12 µg/mL (≈ 0.162 µM) in [1]; less than 0.06 µg/mL in [2]; 0.25 µg/mL (≈ 0.338 µM) in test [3]; 0.25 µg/mL (≈ 0.338 µM) in test [4]; less than 0.06 µg/mL in [5]; less than 0.06 µg/mL in test [6]. Besides, the results for the MIC in [7], in [8] and in test [9] were 0.12 µg/mL (≈ 0.162 µM), 0.5 µg/mL (≈ 0.676 µM) and 0.25 µg/mL (≈ 0.338 µM), respectively.
